Reference: US20260022142A1, “MACROCYCLIC IMMUNOMODULATORS” (Bristol-Myers Squibb Company, priority 2022, published 2026)
Numbered stars: 1 amine (or outer) side, 2 acyl side, 3 side chain; on linkers, the order of the positions; unused ones are H or OH. Bridge positions count the residues as written; N and C are the ends. Square brackets hold non-standard residues; d marks the D form. Peptide text beside a SMILES is read from it. * marks the point of attachment. ξ: configuration not given here. Phe(3-CF3) = N[C@@H](Cc1cccc(C(F)(F)F)c1)C(=O)O; Phe(4-COOH) = N[C@@H](Cc1ccc(C(=O)O)cc1)C(=O)O; Bip = N[C@@H](Cc1ccc(-c2ccccc2)cc1)C(=O)O; Phe(4-NH2) = Nc1ccc(C[C@H](N)C(=O)O)cc1; Phe(3-Me) = Cc1cccc(C[C@H](N)C(=O)O)c1; γGlu = O=C(O)[C@H](CCC(=O)[*:2])N[*:1]; ξBip = NC(Cc1ccc(-c2ccccc2)cc1)C(=O)O; NH(CH2)12COOH = O=C(O)CCCCCCCCCCCCN*; Val(3-OH) = CC(C)(O)[C@H](N)C(=O)O; hArg = N=C(N)NCCCC[C@H](N)C(=O)O; Cha = N[C@@H](CC1CCCCC1)C(=O)O; Cit = NC(=O)NCCC[C@H](N)C(=O)O; Thr(3ξ) = CC(O)[C@H](N)C(=O)O; Dap(Me) = CNC[C@H](N)C(=O)O; 12Ado = NCCCCCCCCCCCC(=O)O; Carboxymethyl = O=C(O)C*; Orn = NCCC[C@H](N)C(=O)O; Aun = NCCCCCCCCCCC(=O)O; Dab = NCC[C@H](N)C(=O)O; Dap = NC[C@H](N)C(=O)O; ξD = NC(CC(=O)O)C(=O)O; AEEA = NCCOCCOCC(=O)O; ξC = NC(CS)C(=O)O; CF3 = FC(F)(F)*

biological target: T1, PD-1/PD-L1 interaction (PE-labeled human PD-L1-Ig binding to Jurkat cell line over-expressing human PD-1) (Homo sapiens, UniProt Q15116); experiment: Jurkat-PD-1 Cell Binding High-Content Screening Assay (CBA); assay type: cell-based; details: Jurkat cell line over-expressing human PD-1; PE-labeled PD-L1-Ig 20 nM final; read-out: Jurkat hPD1-PDL1 IC50
T1 construct: expressed in transfected cells; host or cells: Jurkat
How it was run: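 Jurkat cells over-expressing human PD-1 (8×10^3 per well, DMEM/10% FCS) preincubated with compound 2 h at 37° C, then PE-labeled human PD-L1-Ig (20 nM final) added for 1 h. Cells fixed with paraformaldehyde, Hoechst-stained, and bound fluorescence quantified by high-content imaging.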

T1 sequence (Q15116 25-288): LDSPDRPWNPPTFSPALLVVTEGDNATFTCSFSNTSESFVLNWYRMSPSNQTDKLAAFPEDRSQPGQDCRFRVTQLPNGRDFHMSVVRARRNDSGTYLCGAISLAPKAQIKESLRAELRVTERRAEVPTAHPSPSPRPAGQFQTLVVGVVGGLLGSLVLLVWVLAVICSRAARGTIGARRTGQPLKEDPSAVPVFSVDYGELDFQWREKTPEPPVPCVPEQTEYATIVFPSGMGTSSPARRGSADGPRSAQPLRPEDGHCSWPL

| Compound | IC50 [nM] |
| --- | --- |
| CC(C)C[C@H]1NC(=O)[C@H](CCCN)NC(=O)[C@H](C(C)C)NC(=O)[C@H](Cc2ccc(-c3ccccc3)cc2)NC(=O)[C@H](C(C)C)NC(=O)[C@H](Cc2c[nH]c3ccccc23)NC(=O)[C@H](CC(=O)O)NC(=O)[C@H](Cc2ccc(OCC(=O)O)cc2)NC(=O)[C@H](CCCCNC(=N)N)NC(=O)CSC[C@@H](C(=O)N[C@@H](CCN)C(=O)NCCOCCOCC(=O)NCCCCCCCCCCC(=O)O)NC(=O)[C@H](CN)NC(=O)[C@H](C(C)C)NC(=O)[C@H](CC2CCCCC2)NC(=O)[C@H](CC(N)=O)NC1=O [Compound 3214] ({CH2CO}-[hArg]Y(Carboxymethyl)DWV[Bip]V[Orn][dL]N[Cha]V[Dap]C[Dab][AEEA][Aun]-OH; thioether N-14) | 22.8 |
| CC(C)C[C@H]1NC(=O)[C@H](CCCN)NC(=O)[C@H](C(C)C)NC(=O)[C@H](Cc2ccc(-c3ccccc3)cc2)NC(=O)[C@H](C(C)C)NC(=O)[C@H](Cc2c[nH]c3ccccc23)NC(=O)[C@H](CC(=O)O)NC(=O)[C@H](Cc2ccc(OCC(=O)O)cc2)NC(=O)[C@H](CN)NC(=O)CSCC(C(=O)N[C@H](CC(N)=O)C(=O)NCCCCCCCCCCC(=O)O)NC(=O)[C@H]([C@@H](C)O)NC(=O)[C@H](C(C)C)NC(=O)[C@H](CC2CCCCC2)NC(=O)[C@H](Cc2cnc[nH]2)NC1=O (stereo partly drawn) [Compound 1125] ({CH2CO}-[Dap]Y(Carboxymethyl)DWV[Bip]V[Orn][dL]H[Cha]VT[ξC][dN][Aun]-OH; thioether N-14) | 35.6 |
| CC(=O)NCCCC[C@@H]1NC(=O)[C@H](C(C)(C)O)NC(=O)[C@H](CC2CCCCC2)NC(=O)[C@H](CCN)NC(=O)[C@@H](CC(C)C)NC(=O)[C@H](CCCN)NC(=O)[C@H](Cc2ccc(C(=O)O)cc2)NC(=O)[C@H](Cc2ccc(-c3ccccc3)cc2)NC(=O)[C@H](Cc2ccc(C(=O)O)cc2)NC(=O)[C@H](Cc2cccc(C)c2)NC(=O)[C@H](CC(=O)O)NC(=O)[C@H](Cc2ccc(OC(F)(F)F)cc2)NC(=O)[C@H](Cc2ccc(OCC(=O)O)cc2)NC(=O)CSC[C@@H](C(=O)N[C@@H](CCN)C(=O)NCCOCCOCC(=O)NCCCCCCCCCCCCC(=O)O)NC1=O [Compound 3859] ({CH2CO}-Y(Carboxymethyl)Y(CF3)D[Phe(3-Me)][Phe(4-COOH)][Bip][Phe(4-COOH)][Orn][dL][Dab][Cha][Val(3-OH)]K(Ac)C[Dab][AEEA]-{NH(CH2)12COOH}; thioether N-14) | 52.7 |
| CNC[C@@H]1NC(=O)CSC[C@@H](C(=O)N[C@@H](CCN)C(=O)NCCOCCOCC(=O)N[C@@H](CCC(=O)NCCOCCOCC(=O)NCCCCCCCCCCCCC(=O)O)C(=O)O)NC(=O)[C@H](CO)NC(=O)[C@H](C(C)(C)O)NC(=O)[C@H](CC2CCCCC2)NC(=O)[C@H](CCN)NC(=O)[C@@H](CC(C)C)NC(=O)[C@H](CCCN)NC(=O)[C@H](Cc2ccc(C(=O)O)cc2)NC(=O)[C@H](Cc2ccc(-c3ccccc3)cc2)NC(=O)[C@H](Cc2ccc(C(=O)O)cc2)NC(=O)[C@H](Cc2cccc(C(F)(F)F)c2)NC(=O)[C@H](CC(=O)O)NC(=O)[C@H](Cc2ccc(OCC(=O)O)cc2)NC1=O [Compound 3903] ({CH2CO}-[Dap(Me)]Y(Carboxymethyl)D[Phe(3-CF3)][Phe(4-COOH)][Bip][Phe(4-COOH)][Orn][dL][Dab][Cha][Val(3-OH)]SC[Dab][AEEA][γGlu][AEEA]-{NH(CH2)12COOH}; thioether N-14) | 49.7 |
| Cc1cccc(C[C@@H]2NC(=O)[C@H](CC(=O)O)NC(=O)[C@H](Cc3ccc(OCC(=O)O)cc3)NC(=O)[C@H](CCCCNC(=N)N)NC(=O)CSC[C@@H](C(=O)N[C@@H](CN)C(=O)N[C@@H](CCC(=O)O)C(=O)NCCCCCCCCCCCC(=O)O)NC(=O)[C@H](C(C)O)NC(=O)[C@H](C(C)C)NC(=O)[C@H](CC3CCCCC3)NC(=O)[C@H](CCN)NC(=O)[C@@H](CC(C)C)NC(=O)[C@H](CCCN)NC(=O)[C@H](CCCNC(N)=O)NC(=O)[C@H](Cc3ccc(-c4ccccc4)cc3)NC(=O)[C@H](C(C)C)NC2=O)c1 (stereo partly drawn) [Compound 3188] ({CH2CO}-[hArg]Y(Carboxymethyl)D[Phe(3-Me)]V[Bip][Cit][Orn][dL][Dab][Cha]V[Thr(3ξ)]C[Dap]E[12Ado]-OH; thioether N-14) | 302 |

Compounds with a lower IC50, results first:

| IC50 [nM] | Compound |
| --- | --- |
| 9.1 | CC(C)C[C@H]1NC(=O)[C@H](CCCN)NC(=O)[C@H](C(C)C)NC(=O)[C@H](Cc2ccc(-c3ccccc3)cc2)NC(=O)[C@H](C(C)C)NC(=O)[C@H](Cc2c[nH]c3ccccc23)NC(=O)[C@H](CC(=O)O)NC(=O)[C@H](Cc2ccc(OCC(=O)O)cc2)NC(=O)[C@H](CCCNC(=N)N)NC(=O)CSC[C@@H](C(=O)N[C@@H](CCCN)C(=O)NCCCCCCCCCCC(=O)O)NC(=O)[C@H](CCC(=O)O)NC(=O)[C@H](C(C)C)NC(=O)[C@H](CC2CCCCC2)NC(=O)[C@H](CCN)NC1=O [Compound 3345] ({CH2CO}-RY(Carboxymethyl)DWV[Bip]V[Orn][dL][Dab][Cha]VEC[Orn][Aun]-OH; thioether N-14) |
| 11.5 | CC[C@H](C)[C@@H]1NC(=O)[C@H](Cc2ccc(-c3ccccc3)cc2)NC(=O)[C@H](C(C)C)NC(=O)[C@H](Cc2cccc(C)c2)NC(=O)[C@H](CC(=O)O)NC(=O)[C@H](Cc2ccc(OCC(=O)O)cc2)NC(=O)[C@H](CN)NC(=O)CSC[C@@H](C(=O)N[C@@H](CCCCN)C(=O)NCCOCCOCC(=O)NCCCCCCCCCCC(=O)O)NC(=O)[C@H](CN)NC(=O)[C@H](C(C)C)NC(=O)[C@H](CC2CCCCC2)NC(=O)[C@H](CCN)NC(=O)[C@@H](CC(C)C)NC(=O)[C@H](CCCN)NC1=O [Compound 2650] ({CH2CO}-[Dap]Y(Carboxymethyl)D[Phe(3-Me)]V[Bip]I[Orn][dL][Dab][Cha]V[Dap]CK[AEEA][Aun]-OH; thioether N-14) |
| 9.7 | Cc1cccc(C[C@@H]2NC(=O)C(CC(=O)O)NC(=O)[C@H](Cc3ccc(OCC(=O)O)cc3)NC(=O)[C@H](CN)NC(=O)CSC[C@@H](C(=O)NCCOCCOCC(=O)N[C@@H](CCCN)C(=O)NCCCCCCCCCCC(=O)O)NC(=O)[C@H]([C@@H](C)O)NC(=O)[C@H](C(C)C)NC(=O)[C@H](CC3CCCCC3)NC(=O)[C@H](CCN)NC(=O)[C@@H](CC(C)C)NC(=O)[C@H](CCCN)NC(=O)[C@H](CCCNC(N)=O)NC(=O)C(Cc3ccc(-c4ccccc4)cc3)NC(=O)[C@H](C(C)C)NC2=O)c1 (stereo partly drawn) [Compound 1178] ({CH2CO}-[Dap]Y(Carboxymethyl)[ξD][Phe(3-Me)]V[ξBip][Cit][Orn][dL][Dab][Cha]VTC[AEEA][Orn][Aun]-OH; thioether N-14) |
| 11.3 | Cc1cccc(C[C@@H]2NC(=O)[C@H](CC(=O)O)NC(=O)[C@H](Cc3ccc(OCC(=O)O)cc3)NC(=O)[C@H](Cc3ccc(OCC(=O)O)cc3)NC(=O)CSC[C@@H](C(=O)NCC(=O)N[C@@H](CCC(=O)O)C(=O)NCCCCCCCCCCC(=O)O)NC(=O)[C@H](CO)NC(=O)[C@H](C(C)C)NC(=O)[C@H](CC(C)C)NC(=O)[C@H](CCN)NC(=O)[C@@H](CC(C)C)NC(=O)[C@H](CCCN)NC(=O)[C@H](C(C)C)NC(=O)[C@H](Cc3ccc(-c4ccccc4)cc3)NC(=O)[C@H](CC(C)C)NC2=O)c1 [Compound 1139] ({CH2CO}-Y(Carboxymethyl)Y(Carboxymethyl)D[Phe(3-Me)]L[Bip]V[Orn][dL][Dab]LVSCGE[Aun]-OH; thioether N-14) |
| 15.7 | Cc1cccc(C[C@@H]2NC(=O)[C@H](CC(=O)O)NC(=O)[C@H](Cc3ccc(OCC(=O)O)cc3)NC(=O)[C@H](CCCNC(=N)N)NC(=O)CSC[C@@H](C(=O)N[C@@H](CCN)C(=O)NCCCCCCCCCCC(=O)O)NC(=O)[C@H]([C@@H](C)O)NC(=O)[C@H](C(C)C)NC(=O)[C@H](CC3CCCCC3)NC(=O)[C@H](CCN)NC(=O)[C@@H](CC(C)C)NC(=O)[C@H](CCCN)NC(=O)[C@H](Cc3ccc(O)cc3)NC(=O)[C@H](Cc3ccc(-c4ccccc4)cc3)NC(=O)[C@H](Cc3ccc(OCC(=O)O)cc3)NC2=O)c1 [Compound 2130] ({CH2CO}-RY(Carboxymethyl)D[Phe(3-Me)]Y(Carboxymethyl)[Bip]Y[Orn][dL][Dab][Cha]VTC[Dab][Aun]-OH; thioether N-14) |
| 22 | Cc1cccc(C[C@@H]2NC(=O)[C@H](CC(=O)O)NC(=O)[C@H](Cc3ccc(O)cc3)NC(=O)[C@H](CC(N)=O)NC(=O)CSC[C@@H](C(=O)N[C@@H](CCN)C(=O)NCCCCCCCCCCC(=O)O)NC(=O)[C@H](CCC(=O)O)NC(=O)[C@H](C(C)C)NC(=O)[C@H](CC(C)C)NC(=O)[C@H](CCN)NC(=O)[C@@H](CC(C)C)NC(=O)[C@H](CCCN)NC(=O)[C@H](CCCNC(N)=O)NC(=O)[C@H](Cc3ccc(-c4ccccc4)cc3)NC(=O)[C@H](C(C)C)NC2=O)c1 [Compound 2773] ({CH2CO}-NYD[Phe(3-Me)]V[Bip][Cit][Orn][dL][Dab]LVEC[Dab][Aun]-OH; thioether N-14) |
| 4.7 | Cc1cccc(C[C@@H]2NC(=O)[C@H](CC(=O)O)NC(=O)[C@H](Cc3ccc(OCC(=O)O)cc3)NC(=O)[C@H](CCN)NC(=O)CSC[C@@H](C(=O)N[C@@H](CCN)C(=O)NCCOCCOCC(=O)NCCOCCOCC(=O)NCCOCCOCC(=O)NCCCCCCCCCCC(=O)O)NC(=O)[C@H](CCC(=O)O)NC(=O)[C@H](C(C)(C)O)NC(=O)[C@H](CC3CCCCC3)NC(=O)[C@H](CCN)NC(=O)[C@@H](CC(C)C)NC(=O)[C@H](CCCN)NC(=O)[C@H](Cc3ccc(OCC(=O)O)cc3)NC(=O)[C@H](Cc3ccc(-c4ccccc4)cc3)NC(=O)[C@H](Cc3ccc(OCC(=O)O)cc3)NC2=O)c1 [Compound 3771] ({CH2CO}-[Dab]Y(Carboxymethyl)D[Phe(3-Me)]Y(Carboxymethyl)[Bip]Y(Carboxymethyl)[Orn][dL][Dab][Cha][Val(3-OH)]EC[Dab][AEEA][AEEA][AEEA][Aun]-OH; thioether N-14) |
| 13.7 | CC(C)C[C@H]1NC(=O)[C@H](CCCN)NC(=O)[C@H](C(C)C)NC(=O)[C@H](Cc2ccc(-c3ccccc3)cc2)NC(=O)[C@H](C(C)C)NC(=O)[C@H](Cc2ccc(N)cc2)NC(=O)[C@H](CC(=O)O)NC(=O)[C@H](Cc2ccc(OCC(=O)O)cc2)NC(=O)[C@H](CN)NC(=O)CSC[C@@H](C(=O)N[C@@H](CCN)C(=O)NCCCCCCCCCCC(=O)O)NC(=O)[C@H](CCCCN)NC(=O)[C@H](C(C)C)NC(=O)[C@H](CC2CCCCC2)NC(=O)[C@H](CCN)NC1=O [Compound 2028] ({CH2CO}-[Dap]Y(Carboxymethyl)D[Phe(4-NH2)]V[Bip]V[Orn][dL][Dab][Cha]VKC[Dab][Aun]-OH; thioether N-14) |
